≈ marks a conversion by molar mass, not a printed value.

One assay has as its system NF-kappa B transcriptional activity. Description: Evaluation of the NF-kappa B inhibition (β-gal reporter in immortalized HUVEC, IL-1 β induced). It is filed as cell-based. Particulars: Homo sapiens; HUVEC NF-kappaB β-gal reporter cells; IL-1 β induction; β-gal activity determined 16 hours after; read-out: NFkB inhibition activity IC50. The method, then:
Evaluation of the NF-kappa B Inhibition
Cells used for the tests were those prepared by stably introducing E. coli β-galactosidase (β-gal) genes driven by SV 40 minimum promoter fused with 6 tandems of the NF-KappaB binding motif derived from immunoglobulin kappa light chain enhancer into human normal umbilical cord vein endothelial cells (HUVEC) immortalized with SV 40 large T antigen. The cells were subcultured in RPMI medium containing 10% of FBS, and were seeded on a 96-well plate in a concentration of 1×10^4/well on a day before the start of the experiments. A compound of the present invention was dissolved in DMSO to obtain a solution of a proper concentration, which was added into the 96-well plate so that the final DMSO concentration would be not higher than 1%. 30 minutes after the addition of the compound, in order to induce NF-kappa B transcriptional activity, […] of IL-1 β was added to each well so as to obtain the final concentration of […]. β-gal activity was determined 16 hours after with a chemiluminescent substrate (Galacton-Light-Plus: Boehringer Mannheim) according to a protocol attached to the reagent. A Luminescence detector (ATTO) was used for the determination.
As to `CC1(C)CC1C(=O)Nc1ccc(Oc2ccc(NC(=O)C3CC3(C)C)cn2)cc1` (stereo not shown) [Example 1], the IC50 was found to be 0.5 µg/mL (≈ 1.27 µM).

Take `CC1(C)CC1C(=O)Nc1ccc(Sc2ccc(NC(=O)C3CC3(C)C)cn2)cc1` (stereo not shown) [Example 2]: the IC50 came to 0.3 µg/mL (≈ 0.733 µM).

`CC1(C)CC1C(=O)Nc1ccc(Nc2ccc(NC(=O)C3CC3(C)C)cn2)cc1` (stereo not shown) [Example 3]: the IC50 amounted to 0.8 µg/mL (≈ 2.04 µM).

Turning to `CC1(C)CC1C(=O)Nc1ccc(C(O)c2ccc(NC(=O)C3CC3(C)C)nc2)cc1` (stereo not shown) [Example 4], the IC50 was 1 µg/mL (≈ 2.45 µM).

Consider `CC1(C)CC1C(=O)Nc1ccc(Cc2ccc(NC(=O)C3CC3(C)C)nc2)cc1` (stereo not shown) [Example 5], for which the 50% inhibitory concentration (IC50) stood at 0.9 µg/mL (≈ 2.3 µM).

For the compound `CC1(C)CC1C(=O)Nc1ccc(C(O)c2ccc(NC(=O)C3CC3(C)C)cn2)cc1` (stereo not shown) [Example 6], the half-maximal inhibitory concentration (IC50) was 0.4 µg/mL (≈ 0.982 µM).

In the case of `CC1(C)CC1C(=O)Nc1ccc(Cc2ccc(NC(=O)C3CC3(C)C)cn2)cc1` (stereo not shown) [Example 7], the IC50 stood at 1.5 µg/mL (≈ 3.83 µM).

Take `CC1(C)CC1C(=O)Nc1ccc(Oc2ccc(NC(=O)C3CC3(C)C)nn2)cc1` (stereo not shown) [Example 8]: the IC50 came out at 1.5 µg/mL (≈ 3.8 µM).

In the case of `CC1(C)CC1C(=O)Nc1ccc(Nc2ncc(NC(=O)C3CC3(C)C)cn2)cc1` (stereo not shown) [Example 9], the IC50 was found to be 0.7 µg/mL (≈ 1.78 µM).

For `CC1(C)CC1C(=O)Nc1ccc(CSc2ccc(NC(=O)C3CC3(C)C)cn2)cc1` (stereo not shown) [Example 14], the IC50 amounted to 0.015 µg/mL (≈ 0.0354 µM).

For the compound `Cc1cc(Oc2ccc(NC(=O)C3CC3(C)C)cn2)ccc1NC(=O)C1CC1(C)C` (stereo not shown) [Example 22], the IC50 was 0.15 µg/mL (≈ 0.368 µM).

Regarding `O=C(Nc1ccc(Oc2ccc(NC(=O)C3CC3(Cl)Cl)cn2)cc1)C1CC1(Cl)Cl` (stereo not shown) [Example 26], the IC50 came to 0.15 µg/mL (≈ 0.316 µM).

As for `CC1CCCCC1C(=O)Nc1ccc(Oc2ccc(NC(=O)C3CCCCC3C)cn2)cc1` (stereo not shown) [Example 29], the IC50 amounted to 1 µg/mL (≈ 2.22 µM).

For `CC1(C)CC1C(=O)Nc1ccc(Oc2ccc(NC(=O)c3ccccc3)cc2)nc1` (stereo not shown) [Example 31], the IC50 was determined as 1.5 µg/mL (≈ 3.74 µM).

As for `CC1(C)CC1C(=O)Nc1ccc(Oc2ccc(NC(=O)Cc3ccccc3)cc2)nc1` (stereo not shown) [Example 32], the IC50 was 0.1 µg/mL (≈ 0.241 µM).

In the case of `CC1(C)CC1C(=O)Nc1ccc(Oc2ccc(NC(=O)Cc3ccc(Cl)cc3)cc2)nc1` (stereo not shown) [Example 33], the IC50 was 0.2 µg/mL (≈ 0.445 µM).

Turning to `COc1ccc(CC(=O)Nc2ccc(Oc3ccc(NC(=O)C4CC4(C)C)cn3)cc2)cc1` (stereo not shown) [Example 34], the IC50 was 0.3 µg/mL (≈ 0.673 µM).

On to `CC1(C)CC1C(=O)Nc1ccc(Oc2ccc(NC(=O)CCCc3ccccc3)cc2)nc1` (stereo not shown) [Example 37], for which the IC50 was 0.09 µg/mL (≈ 0.203 µM).

`CC1(C)CC1C(=O)Nc1ccc(Oc2ccc(NCCc3ccccc3)cc2)nc1` (stereo not shown) [Example 38]: the IC50 was 0.05 µg/mL (≈ 0.125 µM).

For `CC1(C)CC1C(=O)Nc1ccc(Oc2ccc(NCCCc3ccccc3)cc2)nc1` (stereo not shown) [Example 39], the IC50 turned out to be 0.035 µg/mL (≈ 0.0842 µM).

Regarding `CC1(C)C[C@@H]1C(=O)Nc1ccc(Oc2ccc(NC(=O)[C@H]3CC3(C)C)cn2)cc1` [Example 43], the IC50 was 0.25 µg/mL (≈ 0.635 µM).

For the compound `CC1(C)C[C@@H]1C(=O)Nc1ccc(Oc2ccc(NC(=O)[C@@H]3CC3(C)C)cc2)nc1` [Example 44], the IC50 came out at 0.1 µg/mL (≈ 0.254 µM).

On to `CC1(C)C[C@@H]1C(=O)Nc1ccc(Oc2ccc(NC(=O)[C@@H]3CC3(C)C)cn2)cc1` [Example 45], for which the IC50 was 1 µg/mL (≈ 2.54 µM).

In the next assay the test system is delayed-type hypersensitivity reaction. Description: Delayed-type hypersensitivity reaction inhibition test (TTx challenge in thoracic skin). It is filed as in vivo. The conditions noted are these: Rhesus monkeys, 50 mg/kg orally twice daily for 4 weeks; TTx challenge day 28, skin reactions 24 and 48 hours after, Draize criteria. As for the experimental part: (§1) An antibody titer inhibition test and a delayed-type hypersensitivity reaction inhibition test
(§2) Rhesus monkeys (female, aged four to six) subjected to the test were sensitized with 6Lf of TTx (Tetanus Toxoid) both in the back skin and in the femur muscle under anesthesia by an intramuscular injection of ketamine. The subject drug at the dose of 50 mg/kg had been administered twice daily (7:00 am and 7:00 pm) for 4 weeks starting at the day of TTx sensitization. The drug was suspended with 0.5% Tween 80 solution and was orally administered using a gastric catheter. The control animals were administered with the vehicle in the same manner as those for the test article. One ml of blood was drawn from femoral vein of each animal twice a week to obtain sera with which the anti-TTx antibody titer was evaluated by the ELISA method. The antibody titer was determined with OD of serially-diluted serum from 1:100 by 2 times and was defined as the degree of dilution reaching to “an average OD of the antibody before immunization+2×SD”. One hour after the final administration in the morning on day 28, TTx was challenged once in the thoracic skin (10, 3, 1, 0.3, 0.1, 0.03 Lf/ml, 10 μl/site), and skin reactions at the injection sites were observed 24 and 48 hours after the TTx challenge. The delayed-type hypersensitivity reaction was scored according to the Draize dermal test criteria.
As to `CC1(C)C[C@@H]1C(=O)Nc1ccc(Oc2ccc(NC(=O)[C@H]3CC3(C)C)cn2)cc1` [Example 43], the “inhibiting effect on delayed-type hypersensitivity reaction” value is “exhibited its inhibiting effect”.

In a further assay the test system is anti-TTx antibody titer. Description: Antibody titer inhibition test (TTx-sensitized monkeys, ELISA). It is filed as in vivo. Particulars: Rhesus monkeys, 50 mg/kg orally twice daily for 4 weeks from TTx sensitization. As for the experimental part: as §1, §2
In the case of `CC1(C)C[C@@H]1C(=O)Nc1ccc(Oc2ccc(NC(=O)[C@H]3CC3(C)C)cn2)cc1` [Example 43], the “inhibiting effect on anti-TTx antibody titer” value is “exhibited its inhibiting effect”.
